Assays:
[1] = molecular target: hemolysin alpha from Staphylococcus aureus (Staphylococcus aureus, UniProt P09616); test: cell-based
[2] = molecular target: S. aureus Alpha hemolysin (Staphylococcus aureus, UniProt P09616); test: cell-based; details: A549-LDH Assay activity
Sequence of S. aureus Alpha hemolysin (P09616 27-319 limits assumed): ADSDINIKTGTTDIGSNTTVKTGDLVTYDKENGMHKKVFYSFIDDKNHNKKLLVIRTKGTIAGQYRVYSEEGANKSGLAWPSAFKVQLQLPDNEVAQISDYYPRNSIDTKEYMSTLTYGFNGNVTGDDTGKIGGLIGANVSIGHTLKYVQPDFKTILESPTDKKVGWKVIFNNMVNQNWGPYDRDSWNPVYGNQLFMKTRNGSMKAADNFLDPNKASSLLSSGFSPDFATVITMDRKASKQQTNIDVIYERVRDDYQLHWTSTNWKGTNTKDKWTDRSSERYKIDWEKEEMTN

Sequence of hemolysin alpha from Staphylococcus aureus (P09616 27-319 limits assumed): as above

`Cc1cc2[nH]c(=O)c(=O)[nH]c2cc1S(=O)(=O)Nc1ccc(I)c(C(F)(F)F)c1` [Compound 325, N-[4-iodo-3-(trifluoromethyl)phenyl]-7-methyl-2,3-dioxo-1,4-dihydroquinoxaline-6-sulfonamide] gave an EC50 [1] of 100 to 1000 nM and an EC50 [2] of 1000 to 6000 nM.
With `Cc1cc2[nH]c(=O)c(=O)[nH]c2cc1S(=O)(=O)Nc1ccc(-c2ccc(F)cc2)c(C(F)(F)F)c1` [Compound 326, N-[4-(4-fluorophenyl)-3-(trifluoromethyl)phenyl]-7-methyl-2,3-dioxo-1,4-dihydroquinoxaline-6-sulfonamide] the EC50 [1] was under 30 nM and the EC50 [2] was 30 to 100 nM.
Work on `Cc1cc2[nH]c(=O)c(=O)[nH]c2cc1S(=O)(=O)Nc1ccc(-c2ccc(F)cc2)c(OC(F)(F)F)c1` [Compound 327, N-[4-(4-fluorophenyl)-3-(trifluoromethoxy)phenyl]-7-methyl-2,3-dioxo-1,4-dihydroquinoxaline-6-sulfonamide] yielded an EC50 [1] of 100 to 1000 nM and an EC50 [2] of 100 to 1000 nM.
Compound `Cc1cc2[nH]c(=O)c(=O)[nH]c2cc1S(=O)(=O)Nc1ccc(-c2ccc3nccn3c2)c(Cl)c1` [Compound 328, N-(3-chloro-4-imidazo[1,2-a]pyridin-6-yl-phenyl)-7-methyl-2,3-dioxo-1,4-dihydroquinoxaline-6-sulfonamide] has an EC50 [1] of 100 to 1000 nM and an EC50 [2] of 100 to 1000 nM.
In the case of `Cc1cc2[nH]c(=O)c(=O)[nH]c2cc1S(=O)(=O)Nc1ccc(-c2ccc3c(c2)OCCN3C)c(Cl)c1` [Compound 329, N-[3-chloro-4-(4-methyl-2,3-dihydro-1,4-benzoxazin-7-yl)phenyl]-7-methyl-2,3-dioxo-1,4-dihydroquinoxaline-6-sulfonamide], the EC50 [1] is reported as 100 to 1000 nM and the EC50 [2] is reported as 1000 to 6000 nM.
Work on `Cc1cc2[nH]c(=O)c(=O)[nH]c2cc1S(=O)(=O)Nc1ccc(-c2cccc(N3CCN(C)CC3)c2)c(Cl)c1` [Compound 330, N-[3-chloro-4-[3-(4-methylpiperazin-1-yl)phenyl]phenyl]-7-methyl-2,3-dioxo-1,4-dihydroquinoxaline-6-sulfonamide] yielded an EC50 [1] of 100 to 1000 nM and an EC50 [2] of 100 to 1000 nM.
`Cc1cc2[nH]c(=O)c(=O)[nH]c2cc1S(=O)(=O)Nc1ccc(-c2cccc(OCCN(C)C)c2)c(Cl)c1` [Compound 331, N-[3-chloro-4-[3-[2-(dimethylamino)ethoxy]phenyl]phenyl]-7-methyl-2,3-dioxo-1,4-dihydroquinoxaline-6-sulfonamide] showed an EC50 [1] of 100 to 1000 nM and an EC50 [2] of 100 to 1000 nM.
For `Cc1cc2[nH]c(=O)c(=O)[nH]c2cc1S(=O)(=O)Nc1ccc(-c2ccc(NC(=O)N(C)C)cc2)c(Cl)c1` [Compound 332, 3-[4-[2-chloro-4-[(7-methyl-2,3-dioxo-1,4-dihydroquinoxalin-6-yl)sulfonylamino]phenyl]phenyl]-1,1-dimethyl-urea], the EC50 [1] was 100 to 1000 nM and the EC50 [2] was 100 to 1000 nM.
Compound `Cc1cc2[nH]c(=O)c(=O)[nH]c2cc1S(=O)(=O)Nc1ccc(-c2cccc(CO)c2)c(Cl)c1` [Compound 333, N-[3-chloro-4-[3-(hydroxymethyl)phenyl]phenyl]-7-methyl-2,3-dioxo-1,4-dihydroquinoxaline-6-sulfonamide] has an EC50 [1] of 30 to 100 nM and an EC50 [2] of 100 to 1000 nM.
In the case of `Cc1cc2[nH]c(=O)c(=O)[nH]c2cc1S(=O)(=O)Nc1ccc(-c2ccc3c(c2)CCNC3=O)c(Cl)c1` [Compound 334, N-[3-chloro-4-(1-oxo-3,4-dihydro-2H-isoquinolin-6-yl)phenyl]-7-methyl-2,3-dioxo-1,4-dihydroquinoxaline-6-sulfonamide], the EC50 [1] is reported as 100 to 1000 nM and the EC50 [2] is reported as 1000 to 6000 nM.
`Cc1cc2[nH]c(=O)c(=O)[nH]c2cc1S(=O)(=O)Nc1ccc(-c2cccc(S(=O)(=O)N(C)C)c2)c(Cl)c1` [Compound 335, N-[3-chloro-4-[3-(dimethylsulfamoyl)phenyl]phenyl]-7-methyl-2,3-dioxo-1,4-dihydroquinoxaline-6-sulfonamide] was tested, and the EC50 [1] was 100 to 1000 nM and the EC50 [2] was 1000 to 6000 nM.
`Cc1cc2[nH]c(=O)c(=O)[nH]c2cc1S(=O)(=O)Nc1ccc(-c2ccn3ccnc3c2)c(Cl)c1` [Compound 336, N-(3-chloro-4-imidazo[1,2-a]pyridin-7-yl-phenyl)-7-methyl-2,3-dioxo-1,4-dihydroquinoxaline-6-sulfonamide] showed an EC50 [1] of 30 to 100 nM and an EC50 [2] of 100 to 1000 nM.
In the case of `Cc1cc2[nH]c(=O)c(=O)[nH]c2cc1S(=O)(=O)Nc1ccc(-c2ccn3ncnc3c2)c(Cl)c1` [Compound 337, N-[3-chloro-4-([1,2,4]triazolo[1,5-a]pyridin-7-yl)phenyl]-7-methyl-2,3-dioxo-1,4-dihydroquinoxaline-6-sulfonamide], the EC50 [1] is reported as 30 to 100 nM and the EC50 [2] is reported as 30 to 100 nM.
For `Cc1cn2ccc(-c3ccc(NS(=O)(=O)c4cc5[nH]c(=O)c(=O)[nH]c5cc4C)cc3Cl)cc2n1` [Compound 338, N-[3-chloro-4-(2-methylimidazo[1,2-a]pyridin-7-yl)phenyl]-7-methyl-2,3-dioxo-1,4-dihydroquinoxaline-6-sulfonamide], the EC50 [1] was under 30 nM and the EC50 [2] was 30 to 100 nM.
`Cc1cc2[nH]c(=O)c(=O)[nH]c2cc1S(=O)(=O)Nc1ccc(-c2cccc(OC(F)(F)F)c2)c(Cl)c1` [Compound 339, N-[3-chloro-4-[3-(trifluoromethoxy)phenyl]phenyl]-7-methyl-2,3-dioxo-1,4-dihydroquinoxaline-6-sulfonamide] showed an EC50 [1] of 30 to 100 nM and an EC50 [2] of 100 to 1000 nM.
In the case of `Cc1cc2[nH]c(=O)c(=O)[nH]c2cc1S(=O)(=O)Nc1ccc(-c2cn(C)c3ccccc23)c(Cl)c1` [Compound 340, N-[3-chloro-4-(1-methylindol-3-yl)phenyl]-7-methyl-2,3-dioxo-1,4-dihydroquinoxaline-6-sulfonamide], the EC50 [1] is reported as 100 to 1000 nM and the EC50 [2] is reported as 1000 to 6000 nM.
With `Cc1cc2[nH]c(=O)c(=O)[nH]c2cc1S(=O)(=O)Nc1ccc(-c2ccc3c(c2)CCN3C)c(Cl)c1` [Compound 341, N-[3-chloro-4-(1-methylindolin-5-yl)phenyl]-7-methyl-2,3-dioxo-1,4-dihydroquinoxaline-6-sulfonamide] the EC50 [1] was 100 to 1000 nM and the EC50 [2] was 1000 to 6000 nM.
`Cc1cc2[nH]c(=O)c(=O)[nH]c2cc1S(=O)(=O)Nc1ccc(-c2cccc(CN)c2)c(Cl)c1` [Compound 342, N-[4-[3-(aminomethyl)phenyl]-3-chloro-phenyl]-7-methyl-2,3-dioxo-1,4-dihydroquinoxaline-6-sulfonamide] showed an EC50 [1] of 1000 to 3500 nM and an EC50 [2] of 100 to 1000 nM.
`Cc1cc2[nH]c(=O)c(=O)[nH]c2cc1S(=O)(=O)Nc1ccc(-c2ccc3c(c2)CCCN3)c(Cl)c1` [Compound 343, N-[3-chloro-4-(1,2,3,4-tetrahydroquinolin-6-yl)phenyl]-7-methyl-2,3-dioxo-1,4-dihydroquinoxaline-6-sulfonamide] showed an EC50 [1] of under 30 nM and an EC50 [2] of 100 to 1000 nM.
In the case of `COCCn1cc(-c2ccc(NS(=O)(=O)c3cc4[nH]c(=O)c(=O)[nH]c4cc3C)cc2Cl)cn1` [Compound 344, N-[3-chloro-4-[1-(2-methoxyethyl)pyrazol-4-yl]phenyl]-7-methyl-2,3-dioxo-1,4-dihydroquinoxaline-6-sulfonamide], the EC50 [1] is reported as 1000 to 3500 nM and the EC50 [2] is reported as 1000 to 6000 nM.
With `COc1ccc(-c2ccc(NS(=O)(=O)c3cc4[nH]c(=O)c(=O)[nH]c4cc3C)cc2C(F)(F)F)cc1F` [Compound 345, N-[4-(3-fluoro-4-methoxy-phenyl)-3-(trifluoromethyl)phenyl]-7-methyl-2,3-dioxo-1,4-dihydroquinoxaline-6-sulfonamide] the EC50 [1] was under 30 nM and the EC50 [2] was under 30 nM.
Work on `CC(=O)Nc1cc(-c2ccc(NS(=O)(=O)c3cc4[nH]c(=O)c(=O)[nH]c4cc3C)cc2C(F)(F)F)ccc1O` [Compound 346, N-[2-hydroxy-5-[4-[(7-methyl-2,3-dioxo-1,4-dihydroquinoxalin-6-yl)sulfonylamino]-2-(trifluoromethyl)phenyl]phenyl]acetamide] yielded an EC50 [1] of 30 to 100 nM and an EC50 [2] of 100 to 1000 nM.
`Cc1cc2[nH]c(=O)c(=O)[nH]c2cc1S(=O)(=O)Nc1ccc(-c2ccc(C#N)cc2)c(C(F)(F)F)c1` [Compound 348, N-[4-(4-cyanophenyl)-3-(trifluoromethyl)phenyl]-7-methyl-2,3-dioxo-1,4-dihydroquinoxaline-6-sulfonamide] showed an EC50 [1] of under 30 nM and an EC50 [2] of 100 to 1000 nM.
`Cc1cc2ccc(-c3ccc(NS(=O)(=O)c4cc5[nH]c(=O)c(=O)[nH]c5cc4C)cc3Cl)cc2[nH]1` [Compound 349, N-[3-chloro-4-(2-methyl-1H-indol-6-yl)phenyl]-7-methyl-2,3-dioxo-1,4-dihydroquinoxaline-6-sulfonamide] showed an EC50 [1] of under 30 nM and an EC50 [2] of under 30 nM.
`Cc1cc2[nH]c(=O)c(=O)[nH]c2cc1S(=O)(=O)Nc1ccc(-c2ccc3c(c2)NC(=O)C3)c(Cl)c1` [Compound 350, N-[3-chloro-4-(2-oxoindolin-6-yl)phenyl]-7-methyl-2,3-dioxo-1,4-dihydroquinoxaline-6-sulfonamide] gave an EC50 [1] of 30 to 100 nM and an EC50 [2] of 30 to 100 nM.
`Cc1cc2[nH]c(=O)c(=O)[nH]c2cc1S(=O)(=O)Nc1ccc(-c2ccc3cccnc3c2)c(Cl)c1` [Compound 351, N-[3-chloro-4-(7-quinolyl)phenyl]-7-methyl-2,3-dioxo-1,4-dihydroquinoxaline-6-sulfonamide] was tested, and the EC50 [1] was under 30 nM and the EC50 [2] was 100 to 1000 nM.
`Cc1cc2[nH]c(=O)c(=O)[nH]c2cc1S(=O)(=O)Nc1ccc(-c2ccc3c(C)c[nH]c3c2)c(Cl)c1` [Compound 352, N-[3-chloro-4-(3-methyl-1H-indol-6-yl)phenyl]-7-methyl-2,3-dioxo-1,4-dihydroquinoxaline-6-sulfonamide] was tested, and the EC50 [1] was 100 to 1000 nM and the EC50 [2] was 100 to 1000 nM.
For `Cc1cc2[nH]c(=O)c(=O)[nH]c2cc1S(=O)(=O)Nc1ccc(-c2ccc3c(c2)NCCO3)c(Cl)c1` [Compound 353, N-[3-chloro-4-(3,4-dihydro-2H-1,4-benzoxazin-6-yl)phenyl]-7-methyl-2,3-dioxo-1,4-dihydroquinoxaline-6-sulfonamide], the EC50 [1] was 30 to 100 nM and the EC50 [2] was 100 to 1000 nM.
In the case of `Cc1cc2[nH]c(=O)c(=O)[nH]c2cc1S(=O)(=O)Nc1ccc(-c2ccc3c(c2)N(C)CCO3)c(Cl)c1` [Compound 354, N-[3-chloro-4-(4-methyl-2,3-dihydro-1,4-benzoxazin-6-yl)phenyl]-7-methyl-2,3-dioxo-1,4-dihydroquinoxaline-6-sulfonamide], the EC50 [1] is reported as 30 to 100 nM and the EC50 [2] is reported as 100 to 1000 nM.

Reference: US20240376084A1, “INHIBITORS OF ALPHA-HEMOLYSIN OF STAPHYLOCOCCUS AUREUS” (Helmholtz-Zentrum Fur Infektionsforschung GmbH, priority 2021, published 2024)
